# Key:
# M. tb [1] = type: cell-based, Mycobacterium tuberculosis; conditions: 5 μM concentration against M. tb during 72 h; FIGS. 4a and 4b
# M. smegmatis = type: cell-based; conditions: compared to the parent OSU-03012 and the other derivatives; FIG. 1
# M. tb [2] = assay: colony-forming unit (CFU) assay to determine bacterial survival; type: cell-based, Mycobacterium tuberculosis; conditions: compared to the parent OSU-03012 and the other derivatives; FIG. 1
compound,measurement,setting,value
"CNC(=O)CCc1cc(-c2ccc(-c3ccc(C(F)(F)F)cc3)cc2)n(-c2ccc(NC(=O)N3CCOCC3)cc2)n1 [cpd2-24-3, N-(4-(3-(3-(methylamino)-3-oxopropyl)-5-(4′-(trifluoromethyl)-[1,1′-biphenyl]-4-yl)-1H-pyrazol-1-yl)phenyl)morpholine-4-carboxamide]",in vitro antimycobacterial activity upon screening of cpd2-24 derivatives,M. tb [1],particularly effective
"CNC(=O)CCc1cc(-c2ccc(-c3ccc(C(F)(F)F)cc3)cc2)n(-c2ccc(NC(=O)c3ccncc3)cc2)n1 [cpd2-24-5, N-(4-(3-(3-(methylamino)-3-oxopropyl)-5-(4′-(trifluoromethyl)-[1,1′-biphenyl]-4-yl)-1H-pyrazol-1-yl)phenyl)isonicotinamide]",in vitro antimycobacterial activity upon screening of cpd2-24 derivatives,M. tb [1],particularly effective
"CNC(=O)CCc1cc(-c2ccc(-c3ccc(C(F)(F)F)cc3)cc2)n(-c2ccc(NC(=O)c3ccccn3)cc2)n1 [cpd2-24-6, N-(4-(3-(3-(methylamino)-3-oxopropyl)-5-(4′-(trifluoromethyl)-[1,1′-biphenyl]-4-yl)-1H-pyrazol-1-yl)phenyl)picolinamide]",in vitro antimycobacterial activity upon screening of cpd2-24 derivatives,M. tb [1],particularly effective
"CNC(=O)CCc1cc(-c2ccc(-c3ccc(C(F)(F)F)cc3)cc2)n(-c2ccc(NC(=O)c3cccnc3)cc2)n1 [cpd2-24-7, N-(4-(3-(3-(methylamino)-3-oxopropyl)-5-(4′-(trifluoromethyl)-[1,1′-biphenyl]-4-yl)-1H-pyrazol-1-yl)phenyl)nicotinamide]",in vitro antimycobacterial activity upon screening of cpd2-24 derivatives,M. tb [1],particularly effective
NS(=O)(=O)Nc1ccc(-n2nc(C(F)(F)F)cc2-c2ccc3c(ccc4ccccc43)c2)cc1 [cpd-2],"killing of M. smegmatis (bacterial survival, CFU)",M. smegmatis,significantly kill
same,"killing of M. tb (bacterial survival, CFU)",M. tb [2],significantly kill

# From patent US9457031B2, “Antibacterial protein kinase inhibitors” (priority 2012, dated 2016)
